Ten compounds from patent US20080045514A1 (Cytovia, Inc., priority 2006, published 2008) can be followed below.

What all share (assay type): cell-based
The subject of assay [1] is human breast cancer cell line T-47D. The experiment in a line: Caspase cascade activation (EC50), T-47D. The settings on record: Homo sapiens; T47D cells; caspase cascade activation; read-out: caspase potency (EC50) T47D. In a few lines:
(§1)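 Cells were resuspended at 0.65×10^6 cells/mL in medium + 10% FCS and exposed to test compound at 0.016 to 10 μM final for 48 h at 37 °C. Caspase activity was then read as fluorescence (ex 485/em 530 nm) from DEVD-R110 substrate with lysolecithin in PIPES pH 7.2, 3 h at room temperature.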

Assay [2] has as its system human hepatocellular carcinoma cell line SNU398. The experiment in a line: Caspase cascade activation (EC50), SNU398. Conditions: Homo sapiens, SNU-398; SNU398 cells; caspase cascade activation; read-out: caspase potency (EC50) SNU398. In a few lines:
as §1

The test system of assay [3] is human colon carcinoma cell line HCT116. The assay is described as follows: Caspase cascade activation (EC50), HCT116. Conditions: Homo sapiens, HCT-116; HCT116 cells; caspase cascade activation; read-out: caspase potency (EC50) HCT116. In a few lines: as §1
In assay [4] the test system is human cancer cell line H1299. The experiment in a line: Caspase cascade activation (EC50), H1299. Conditions: NCI-H1299, H1299 cells, read-out: caspase potency (EC50) H1299. Put shortly: as §1
In assay [5] the test system is human Burkitt's lymphoma cell line Namalwa. The experiment in a line: Caspase cascade activation (EC50), Namalwa. The settings on record: Homo sapiens, Burkitts lymphoma cell; Namalwa cells; caspase cascade activation; read-out: caspase potency (EC50) Namalwa. Put shortly: as §1
Assay [6] has as its system human lymphoma cell line Raji. The experiment in a line: Caspase cascade activation (EC50), Raji. Conditions: Homo sapiens, RAJI cells, read-out: caspase potency (EC50) RAJI. Put shortly:
as §1

Assay [7] deals with human B cell lymphoblastoid cell line Ramos. The experiment in a line: Caspase cascade activation (EC50), Ramos. The settings on record: Homo sapiens, RAMOS cells, read-out: caspase potency (EC50) RAMOS. Put shortly: as §1
Assay [8] concerns human breast cancer cell line T-47D. The experiment in a line: Inhibition of cell proliferation (GI50), T47D. The settings on record: Homo sapiens; T47D cells, 48 h, CellTiter-Glo. In a few lines: (§2)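 Growth inhibition is determined as the compound concentration halving proliferation relative to a time-zero (0.5 h) luminescence baseline and drug-free maximum. Cells (4.4×10^4 cells/mL) are treated 48 h at 37 °C over a 1 nM–10 μM final range, and ATP content is measured with CellTiter-Glo.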
In general terms: In ATP-based viability assays light output follows the ATP content of the culture.

For assay [9], the system named is human lung cancer cell line H1299. The experiment in a line: Inhibition of cell proliferation (GI50), H1299. Conditions: NCI-H1299, H1299 cells, 48 h, CellTiter-Glo. The method, then:
Human breast cancer cell lines T-47D, human hepatocellular carcinoma cell line SNU398, human colon carcinoma cell line HCT116, human lung cancer cell line H1299, human leukemia cell line K562, human lymphoma cell line Raji, human B cell lymphoblastoid cell line Ramos, and human Burkitt's lymphoma cell line Namalwa were grown and harvested as in Example 100. An aliquot of […] of cells (4.4×10^4 cells/mL) was added to a well of a 96-well microtiter plate containing 5 μL of a 10% DMSO in RPMI-1640 media solution containing 10 nM to 100 μM of 3-(2-chlorophenyl)-6-(3,4-methylenedioxyphenyl)-7H-[1,2,4]triazolo[3,4-b][1,3,4]thiadiazine (1 nM to 10 μM final). An aliquot of 45 μL of cells was added to a well of a 96-well microtiter plate containing 5 μL of a 10% DMSO in RPMI-1640 media solution without compound as the control sample for maximal cell proliferation (LMax). The samples were mixed by agitation and then incubated at 37° C. for 48 h in a 5% CO2-95% humidity incubator. After incubation, the samples were removed from the incubator and 25 μL of CellTiter-Glo™ reagent (Promega) was added. The samples were mixed by agitation and incubated at room temperature for 10-15 min. Plates were then read using a luminescent plate reader (Model SPECTRAfluor Plus, Tecan) to give Ltest values.
The samples were mixed by agitation and then incubated at 37° C. for 0.5 h in a 5% CO2-95% humidity incubator. After incubation, the samples were removed from the incubator and 25 μL of CellTiter-Glo™ reagent (Promega) was added. The samples were mixed by agitation and incubated at […] 10-15 min at room temperature in a 5% CO2-95% humidity incubator. Fluorescence was read as above, (LStart) defining luminescence for initial cell number used as baseline in GI50 determinations.
Calculation: GI50 (dose for 50% inhibition of cell proliferation) is the concentration where [(Ltest−LStart)/(LMax−LStart)]=0.5.

The subject of assay [10] is human colon carcinoma cell line HCT116. The assay is described as follows: Inhibition of cell proliferation (GI50), HCT116. Conditions: Homo sapiens; HCT 116 cells, 48 h, CellTiter-Glo. In a few lines:
as §2

Assay [11] concerns human leukemia cell line K562. The experiment in a line: Inhibition of cell proliferation (GI50), K562. Conditions: Homo sapiens; K562 cells, 48 h, CellTiter-Glo. Put shortly:
as §2

Assay [12] deals with human lymphoma cell line Raji. The assay is described as follows: Inhibition of cell proliferation (GI50), Raji. Conditions: Homo sapiens; Raji cells, 48 h, CellTiter-Glo. In a few lines: as §2
In assay [13] the test system is human B cell lymphoblastoid cell line Ramos. The assay is described as follows: Inhibition of cell proliferation (GI50), Ramos. The settings on record: Homo sapiens; Ramos cells, 48 h, CellTiter-Glo. In a few lines:
as §2

Assay [14] deals with human Burkitt's lymphoma cell line Namalwa. The assay is described as follows: Inhibition of cell proliferation (GI50), Namalwa. The settings on record: Homo sapiens, Burkitts lymphoma cell; Namalwa cells, 48 h, CellTiter-Glo. In a few lines:
as §2

The subject of assay [15] is human hepatocellular carcinoma cell line SNU398. The experiment in a line: Inhibition of cell proliferation (GI50), SNU398. The settings on record: Homo sapiens; SNU 398 cells, 48 h, CellTiter-Glo. In a few lines:
as §2

For orientation: pEC50 means the EC50 on a negative log10 scale, so that one unit is a factor of ten. By GI50 is commonly meant the concentration at which growth is held to half of that of the control. Read a low GI50 as more potent growth inhibition.

pEC50: −log10 of the molar value. Where a name gives a salt, the structure may show the parent alone.

Turning to `COc1ccc(C2=Nn3c(nnc3-c3ccc(OC)c(OC)c3)SC2)cc1OC` [Example N1, 3-(3,4-Dimethoxyphenyl)-6-(3,4-dimethoxyphenyl)-7H-[1,2,4]triazolo[3,4-b][1,3,4]thiadiazine], the negative logarithm of the EC50 (pEC50) in [1] was 5.65; in [2], 5.88; in assay [3], 5.61; in assay [4], 5.62; in [5], 6.25; in assay [6], 6.24. Moreover, the pEC50 in assay [7] was 6.23. Further, the GI50 in [8] is 2650 nM; in assay [9], 1940 nM.
For `COc1ccc(C2=Nn3c(nnc3-c3ccccc3C)SC2)cc1OC` [K, 3-(2-Methylphenyl)-6-(3,4-dimethoxyphenyl)-7H-[1,2,4]triazolo[3,4-b][1,3,4]thiadiazine], the pEC50 in [1] was 5.29; in assay [2], 6.50; in [3], 6.24; in [4], 6.16; in [5] it was 6.57; in [6], 6.32. In [7], the negative logarithm of the EC50 (pEC50) is 6.57. Further, the GI50 in assay [8] was determined as 2620 nM; in assay [9] it was 667 nM.
Consider `COc1ccc(C2=Nn3c(nnc3-c3ccccc3OC)SC2)cc1OC` [Example K1, 3-(2-Methoxyphenyl)-6-(3,4-dimethoxyphenyl)-7H-[1,2,4]triazolo[3,4-b][1,3,4]thiadiazine], for which the pEC50 in assay [1] is 6.30; in assay [2] it was 7.15; in [3], 6.87; in [4], 6.43; in [5] it was 6.97; in [6] it was 6.86. In addition, the pEC50 in assay [7] was 7.06. Besides, the GI50 in assay [8] was 461 nM; in assay [10] it was 253 nM; in [9], 191 nM; in assay [11] it was 99 nM; in assay [12] it was 39 nM; in assay [13], 41 nM. The same compound gave a GI50 in assay [14] of 38 nM.
On to `COc1ccccc1-c1nnc2n1N=C(c1ccc(Br)cc1)CS2` [W, 3-(2-Methoxyphenyl)-6-(4-bromophenyl)-7H-[1,2,4]triazolo[3,4-b][1,3,4]thiadiazine], for which the pEC50 in [1] is 6.50; in [2], 6.79; in [3], 6.61; in assay [4], 6.26; in assay [6], 6.49; in assay [7], 6.76. In addition, the GI50 in assay [8] was 135 nM; in [10], 489 nM; in assay [9] it was 161 nM; in assay [11], 178 nM; in [12], 299 nM; in assay [13], 141 nM. In addition, the GI50 in [14] is 314 nM.
Regarding `Cc1cccc(-c2nnc3n2N=C(c2ccc4c(c2)OCO4)CS3)c1` [Example T, 3-(3-Methylphenyl)-6-(3,4-methylenedioxyphenyl)-7H-[1,2,4]triazolo[3,4-b][1,3,4]thiadiazine], the pEC50 is 6.46 in assay [1]; 6.61 in assay [2]; 6.33 in [3]; 5.91 in [4]; 6.58 in [5]; 6.66 in assay [6]. Further, the pEC50 in [7] is 6.58. For the same compound, the concentration for 50% growth inhibition (GI50) in assay [8] was found to be 375 nM; in assay [9] it was 314 nM.
For the compound `CCOc1cccc(-c2nnc3n2N=C(c2ccc(O)c(O)c2)CS3)c1` [Example C1, 3-(3-Ethoxyphenyl)-6-(3,4-dihydroxyphenyl)-7H-[1,2,4]triazolo[3,4-b][1,3,4]thiadiazine], the pEC50 in assay [1] was 5.88; in assay [2], 5.91; in assay [3], below 5.00; in [4] it was 5.88; in assay [6], 6.15; in [7], 6.03. The GI50 turned out to be 1370 nM in assay [8]; 2340 nM in [10]; 1010 nM in assay [9]; 453 nM in assay [11]; 2890 nM in assay [12]; 1390 nM in [13]. For the same compound, the GI50 in assay [14] is 2870 nM.
On to `COc1ccc(C2=Nn3c(nnc3-c3ccccc3Cl)SC2)cc1OC` [N, 3-(2-Chlorophenyl)-6-(3,4-dimethoxyphenyl)-7H-[1,2,4]triazolo[3,4-b][1,3,4]thiadiazine], for which the negative-log EC50 (pEC50) in assay [1] is 5.62; in assay [2], 6.44; in assay [3], 6.25; in assay [4], 6.12; in assay [5], 6.56; in [6] it was 6.30. Also, the pEC50 in assay [7] is 6.56. Also, the values for the GI50 in assay [8] and in [9] were 2540 nM and 510 nM, respectively.
Take `Clc1ccc(-c2nnc3n2N=C(c2ccc4c(c2)OCO4)CS3)cc1` [G, 3-(4-Chlorophenyl)-6-(3,4-methylenedioxyphenyl)-7H-[1,2,4]triazolo[3,4-b][1,3,4]thiadiazine]: the pEC50 in assay [1] is 6.29; in assay [2] it was 6.56; in assay [3], 6.07; in assay [4], 5.85; in assay [5] it was 6.58; in assay [6], 6.41. Also, the pEC50 in assay [7] is 6.32. In addition, the GI50 in [8] was 97 nM; in [9], 307 nM.
As for `COc1ccccc1-c1nnc2n1N=C(c1ccc(C)cc1)CS2` [Example 8, 3-(2-Methoxyphenyl)-6-(4-methylphenyl)-7H-[1,2,4]triazolo[3,4-b][1,3,4]thiadiazine hydrochloride], the pEC50 was 6.84 in [1]; 7.60 in [2]; 7.22 in [3]; 7.51 in assay [5]; 7.24 in assay [6]; 7.52 in assay [7]. Further, the GI50 worked out at 17 nM in assay [8]; 150 nM in [15]; 15 nM in [10]; 43 nM in assay [11]; 27 nM in assay [12]; 16 nM in assay [13]. In addition, in assay [14], growth was halved (GI50) at 66 nM.
As for `c1cc2c(cc1C1=Nn3c(nnc3-c3n[nH]c4c3CCC4)SC1)OCO2` [Example W2], the negative-log EC50 (pEC50) in assay [1] is 6.37; in [2], 6.30; in assay [3], 6.22; in [5], 6.23; in assay [6], 6.15; in assay [7], 6.28. Also, the concentration for 50% growth inhibition (GI50) in assay [8] was found to be 1500 nM; in assay [15], 294 nM; in assay [10], 5900 nM; in assay [11] it was 1870 nM; in [12] it was 3000 nM; in assay [13] it was 1290 nM. Besides, the GI50 in assay [14] came to 2550 nM.
